US10758609B2, “Cross-reactive T-cell epitopes of HIV, SIV, and FIV for vaccines in humans and cats” (priority 2015, dated 2020)
Residues, ends and D or L forms follow the SMILES beside them.

Experiments:
[1] = test system: CD4^+ T cells from HIV^+ subjects; conditions: HIV-1 peptides; HIV+ human subjects
Procedure: The overlapping peptide pools of FIV and HIV-1 structural and enzyme proteins were used to stimulate the […] (PBMC) and the T cells from HIV^+ subjects as previously described for epitope mapping of HIV-1 and FIV p24 and reverse transcriptase (RT) (Sanou et al., 2013; Roff et al., 2015). The individual peptides in those peptide pools with positive responses to either interferon-γ (IFNγ) production and/or T-cell proliferation were determined with IFNγ ELISpot analysis and CFSE-based CD3^+CD4^+ and CD3^+CD8^+ T-cell proliferation analyses followed by the FACS-based intracellular staining (ICS) for cytolysin (perforin) and cytotoxin (granzyme A [GrzA] and GrzB) (Sanou et al., 2013; Roff et al., 2015). Besides viral p24 and RT proteins, the identical approach was used to identify anti-HIV/FIV T-cell epitopes on viral matrix (MA), nucleocapsid (NC), protease (PR), RNAase, integrase (IN), surface envelope (SU Env), and transmembrane envelope (TM Env) (FIG. 12).
Since our goal is to develop HIV vaccine for human use, the HIV peptides (Table 10) counterpart of the cross-reactive FIV peptides shown in Table 9 were tested with PBMC and T cells from HIV^+ subjects. The immune functions analyzed were human IFNγ production by ELISpot, cytolysin/cytotoxin production by ICS, and CFSE-based proliferation of CD3^+CD4^+ and CD3^+CD8^+ T cells from HIV^+ subjects (Table 10, the first set of results). In addition, the Los Alamos National Laboratories (LANL) database was used to identify the HLA allele(s) of the HIV epitope sequence with CTL activity that can exist within the sequence of the conserved counterpart HIV peptide (Table 9, LANL CTL). The bold HLA class-I supertypes and the bold 2-digit alleles are those on the “Optimal CD8^+ CTL Epitopes” list and those without bold are alleles for potential CTL epitope. […] The HLA class II such as HLA-DRB1 has yet to be fully classified into supertypes, and therefore the 4-digit resolution nomenclatures for the HLA-DRB1 alleles are shown.
The counterpart HIV-1 peptides of the FIV peptides were also tested for immunogenicity using PBMC and T cells from HIV^+ human subjects. […] The HRT7-1 and HRT7-2 were also tested with cells from HIV^+ subjects on ART. The threshold for positive IFNγ ELISpot response is ≥75 spot-forming units (SFU) per 10^6 PBMC. The threshold for CFSE-based CD4^+ (CD4^+ T) and CD8^+ (CD8^+ T) T-cell proliferation is ≥2% CD4^+ T-cell CFSE^low or CD8^+ T-cell CFSE^low. The threshold of intracellular cytokine staining (ICS) of FACS-based cytolysin (perforin) and cytotoxins (granzymes A and B) in CD4^+ T cells (CyCD4) and CD8^+ T cells (CyCD8) is ≥0.2%. […] The nine HIV-1 peptides in black are the counterpart FIV peptides used in the current MAP vaccine trial, whereas the 13 peptides in blue were not.

[2] = test system: PBMC from FIV-vaccinated cats; assay: Feline IFNγ ELISpot of PBMC from vaccinated cats; assay type: cell-based, cat; conditions: for IFNγ production: cats of Group 1, MAP Vaccine Trial 1 (FIG. 3)
Procedure: (§1) IFNγ and IL2 ELISpot analyses were performed using feline IFNγ ELISpot and feline IL2 ELISpot kits (R&D Systems, Cat# SEL764 and SEL1890) as described. The threshold is defined as ≥50 spot forming units (SFU) per 1×10^6 PBMC when counted with MVS ELISpot Reader (MVS Pacific, LLC). Each result is an average of the duplicate samples after subtraction of the average value of the media controls.
(§2) Concurrently, the overlapping peptide pools of FIV structural/enzyme proteins were used to stimulate PBMC and T cells from FIV-vaccinated cats. These cats were vaccinated with prototype dual-subtype FIV vaccine which was the prototype to our commercial FIV vaccine (Coleman et al., 2014). The feline assays (Example 1) equivalent to those of human assays (Sanou et al., 2013; Roff et al., 2015) were used except for ICS analysis. In place of ICS for cytolysin/cytotoxins, IL2 ELISpot analysis was performed. […] The results for FIV-vaccinated cats included IFNγ and IL2 productions and CD3^+CD4+ and CD3^+CD8^+ T-cell proliferation (Table 9, the second set of results).
(§3) The feline IFNγ and L2 ELISpot analyses of PBMC to FIV MAPs and peptides were performed as previously described (Abbott et al. (2012)) using feline IFNγ modular kit (R&D Systems, Minneapolis, Minn.) and feline IL2 modular kit (R&D Systems). All results shown in the figures (FIGS. 8A-1, 8B-1, 8A-2, 8B-2, 8A-3, 8B-3) are after subtracting the average value of the results from all control cats.
(§4) The second parameter evaluated was the ability of the peripheral blood mononuclear cells (PBMC) from vaccinated and control cats to produce IL2 and interferon-γ (IFNγ) proteins in responses to FIV MAPs and peptides (FIGS. 8A-1, 8A-2, 8A-3, 8B-1, 8B-2, 8B-3) using feline IL2 and IFNγ ELISpot assays (Aranyos et al. (2016); Abbott et al. (2012)). IL2 enhances the proliferation of FIV-specific CD4^+ T cells and CD8^+ T cells. IFNγ is known enhance the FIV-specific CTL activities in vaccinated cats (Abbas et al. (2015)).

[3] = test system: feline CD3^+CD4^+ T cells; assay: CFSE-based feline CD3+CD4+ T-cell proliferation; parameters: species or system cat; conditions: FIV-vaccinated cats; for CD4, frequency of responders: FIV epitope peptide; for CDC4^+ T (T-cell proliferation), frequency of responders: FIV peptides
Procedure: (§5) Carboxyfluorescein diacetate succinimide ester (CFSE)-proliferation was performed according to the manufacturer's protocol (Invitrogen, Grand Island, N.Y.) and processed using a previously described modification. The modification consisted of 2.5×10^5 CFSE-labeled feline PBMC stimulated for 5 days (37° C., 5% CO2) with 4 μg/mL peptide in culture media (RPMI medium 25 µg/mL gentamycin, and 10% heat-inactivated fetal bovine serum (FBS)). Peptide pools consisted of 3-5 overlapping peptides of 4 μg/mL each. The antibodies used for flow cytometry based proliferation analysis consisted of murine anti-feline (Fe) CD3 monoclonal antibody (MAb clone kindly provided by Drs. Yorihiro Nishimura and Takayuki Miyazawa; described in [32]) combined with secondary goat anti-mouse IgG3-APC/CY7 MAb (SouthernBiotech, Birmingham, Ala.; Cat#1100-19); and murine anti-FeCD4-PE MAb (SouthernBiotech, Cat#8130-09); and murine anti-FeCD8 MAb (MAb clone kindly provided by Dr. Nazareth Gengozian, described in [33]) with secondary goat anti-mouse IgG2a-PE/CY7 (Southern Biotech, Cat#1080-17). The murine anti-B220-APC MAb for detecting feline B cells (SouthernBiotech, Cat#1665-11) and previously described MAbs for CFSE were used for FACS phenotyping. Both FACS phenotyping and CFSE-proliferation analyses were performed with BD LSRII and FACSDiva™ Software (BD Biosciences, San Jose, Calif.). The final value for each sample was derived after subtraction of the average value of the media controls using a positive threshold of ≥1 CFSE^low.
as §2
(§6) Carboxyfluorescein diacetate succinimide ester (CFSE)-proliferation analysis was according to the manufacturer's protocol (Invitrogen-Fisher, Carlsbad, Calif.) and processed as previously described (Roff et al. (2015)) using the following modifications: anti-feline CD3 antibody ((clone NZM1), a generous gift from T. Miyazawa (Univ. of Tokyo, Japan)) in combination with APC-conjugated anti-mouse IgG3 (Southern Biotech, Birmingham, Ala.), PE-conjugated anti-feline CD4 antibody (Southern Biotech), and anti-feline CD8 antibody (gift from N. Gengozian, University of Tennessee (Gengozian et al. (1997))) in combination with PE/Cy7-conjugated anti-mouse IgG2b (Southern Biotech) to detect the proliferation of feline CD3^+CD4+ T cells and feline […]. All results shown in the figures (FIGS. 7A-1, 7B-1, 7A-2, 7B-2, 7A-3, 7B-3) are after subtracting the average value of each results from all control cats. The threshold of CFSE proliferation is ≥0.5 CFSE^low. […]

[4] = test system: feline CD3^+CD8^+ T cells; assay: CFSE-based feline CD3+CD8+ T-cell proliferation; parameters: species or system cat; conditions: for CD8, frequency of responders: FIV epitope peptide; for CD8, frequency of responders / CD8^+ T (T-cell proliferation), frequency of responders: FIV-vaccinated cats; for CD8^+ T (T-cell proliferation), frequency of responders: FIV peptides; for % CD8+ T-cell CFSE^low over % CD4+ T-cell CFSE^low ratio (CD8/CD4 response ratio): cats of Group 1, MAP Vaccine Trial 1 (FIG. 3)
Procedure: as §5, §2, §6

[5] = test system: PBMC from FIV-vaccinated cats; assay: Feline IL2 ELISpot of PBMC from vaccinated cats; assay type: cell-based, cat
Procedure: as §1, §2, §3, §4

[6] = FIV epitope peptide, FIV-vaccinated cats
[7] = FIV peptides, FIV-vaccinated cats (prototype dual-subtype vaccine)

Row | Compound | CyCD4 (cytolysin and cytotoxin production of CD4+ T cells), frequency of responders [1] | IFNγ, frequency of responders [2, 6] | IFNγ, frequency of responders [2, 7] | CD4, frequency of responders [3] | CDC4^+ T (T-cell proliferation), frequency of responders [3] | CD8, frequency of responders [4] | CD8^+ T (T-cell proliferation), frequency of responders [4] | IL2, frequency of responders ([5]; FIV epitope peptide) | IL2, frequency of responders ([5]; FIV peptides) | IFNγ production [2] | % CD8+ T-cell CFSE^low over % CD4+ T-cell CFSE^low ratio (CD8/CD4 response ratio) [4]
1 | CC[C@H](C)[C@H](N)C(=O)N1CCC[C@H]1C(=O)N[C@H](C(=O)NCC(=O)N[C@@H](CCC(=O)O)C(=O)N[C@H](C(=O)N[C@@H](Cc1ccc(O)cc1)C(=O)N[C@@H](CCCCN)C(=O)N[C@@H](CCCNC(=N)N)C(=O)N[C@@H](Cc1c[nH]c2ccccc12)C(=O)N[C@H](C(=O)N[C@H](C(=O)N[C@@H](CC(C)C)C(=O)NCC(=O)O)[C@@H](C)CC)[C@@H](C)CC)[C@@H](C)CC)C(C)C [Hp9-3(10-3)] | + (12.5%-25% (+)) |  |  |  |  |  |  |  |  |  | 
2 | CSCC[C@H](NC(=O)[C@H](Cc1c[nH]c2ccccc12)NC(=O)[C@H](CC(N)=O)NC(=O)[C@H](CCCCN)NC(=O)[C@@H](NC(=O)[C@H](CCC(=O)O)NC(=O)[C@H](CCC(N)=O)NC(=O)[C@H](CO)NC(=O)[C@H](C)N)C(C)C)C(=O)N[C@H](C(=O)N[C@@H](CCC(=O)O)C(=O)N[C@H](C(=O)N[C@@H](CC(C)C)C(=O)N[C@@H](CC(C)C)C(=O)N[C@H](C(=O)O)C(C)C)[C@@H](C)O)[C@@H](C)O [Hp14-2(15-2)] (H-ASQEVKNWMTETLLV-OH; N-terminus and C-terminus assumed) | ++++ (>54% (++++)) |  |  |  |  |  |  |  |  |  | 
3 | AAAPVNQMQQAVMPSA [FNC2] |  | ++++ (>54% (++++)) | ++++ (>54% (++++)) | — (0%-1.4% (—)) | — (0%-1.4%(—)) | ++++ (>54% (++++)) | ++++ (>54% (++++)) | ++++ (>54% (++++)) | ++++ (>54% (++++)) |  | 
4 | AEVKLYLKQSLSIANA [Fp14-3/4, overlapping peptide of MAP3] |  |  | +++ (40.1%-54% (+++)) |  | +++ (40.1%-54% (+++)) |  | +++ (40.1%-54% (+++)) |  | ++++ (>54% (++++)) | 96 SFU/10^6 PBMC | 4.8
5 | GRRYVWCSLPQGWVLSPLIY [FRT7-1/2, overlapping peptide of MAP5] |  |  | +++ (40.1%-54% (+++)) |  | +++ (40.1%-54% (+++)) |  | +++ (40.1%-54% (+++)) |  | +++ (40.1%-54% (+++)) | no IFNγ response | 11
6 | GSSKEIDMAIVTLKV [FMA2] |  | ++ (26%-40% (++)) | ++ (25.1%-40% (++)) | ++++ (>54% (++++)) | ++++ (>54% (++++)) | ++++ (>54% (++++)) | ++++ (>54% (++++)) | ++ (26%-40% (++)) | ++ (25.1%-40% (++)) |  | 
7 | KFLLDTGADITILN [FPR2] |  | ++++ (>54% (++++)) | ++++ (>54% (++++)) | ++++ (>54% (++++)) | ++++ (>54% (++++)) | ++++ (>54% (++++)) | ++++ (>54% (++++)) | ++++ (>54% (++++)) | ++++ (>54% (++++)) |  | 
8 | NVAVGVGGKSKKF [FMA1] |  | ++++ (>54% (++++)) | ++++ (>54% (++++)) | +++ (41%-54% (+++)) | +++ (40.1%-54% (+++)) | ++++ (>54% (++++)) | ++++ (>54% (++++)) |  | — (0%-1.4%(—)) |  | 
9 | TLEKRPEILIFVNG [FPR1] |  | — (0%-1.4% (—)) | — (0%-1.4%(—)) | ++++ (>54% (++++)) | ++++ (>54% (++++)) | ++++ (>54% (++++)) | ++++ (>54% (++++)) | — (0%-1.4% (—)) | — (0%-1.4%(—)) |  | 
10 | WRMLIDFRVLNKLTDKGA [FRT3-4/5] |  |  | — (0%-1.4%(—)) |  | — (0%-1.4%(—)) |  | — (0%-1.4%(—)) |  | +++ (40.1%-54% (+++)) |  | 
